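Protocol summary: plate cells (96-well), add compound at 5 concentrations, incubate 48 h, interpolate endpoints linearly. At the TGI there is no net growth.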
Experiments:
Test in all cases: NCI anticancer screen, dose series, 48 h
T-47D breast = test system: T-47D breast
OVCAR-8 ovarian = test system: OVCAR-8 ovarian
KM12 colon = test system: KM12 colon
HS 578T breast = test system: HS 578T breast
HOP-92 NSCLC = test system: HOP-92 NSCLC
PC-3 prostate = test system: PC-3 prostate
SW-620 colon = test system: SW-620 colon
MDA-MB-231 breast = test system: MDA-MB-231 breast
SK-MEL-5 melanoma = test system: SK-MEL-5 melanoma
A498 renal = test system: A498 renal
NCI-H226 lung = test system: NCI-H226 lung
SR leukemia = test system: SR leukemia
UACC-62 melanoma = test system: UACC-62 melanoma
NCI-H23 lung = test system: NCI-H23 lung
TK-10 renal = test system: TK-10 renal
SNB-19 CNS = test system: SNB-19 CNS
IGROV1 ovarian = test system: IGROV1 ovarian
SF-539 CNS = test system: SF-539 CNS
NCI-H460 lung = test system: NCI-H460 lung
OVCAR-3 ovarian = test system: OVCAR-3 ovarian
ACHN renal = test system: ACHN renal
SN12C renal = test system: SN12C renal
RXF 393 renal = test system: RXF 393 renal
786-0 renal = test system: 786-0 renal
K-562 leukemia = test system: K-562 leukemia
LOX IMVI melanoma = test system: LOX IMVI melanoma
HOP-62 NSCLC = test system: HOP-62 NSCLC
HCT-15 colon = test system: HCT-15 colon
DU-145 prostate = test system: DU-145 prostate
SNB-75 CNS = test system: SNB-75 CNS
EKVX NSCLC = test system: EKVX NSCLC
CAKI-1 renal = test system: CAKI-1 renal
OVCAR-5 ovarian = test system: OVCAR-5 ovarian
SK-OV-3 ovarian = test system: SK-OV-3 ovarian
MCF7 breast = test system: MCF7 breast
COLO 205 colon = test system: COLO 205 colon
HT29 colon = test system: HT29 colon
U251 CNS = test system: U251 CNS
HCC-2998 colon = test system: HCC-2998 colon
OVCAR-4 ovarian = test system: OVCAR-4 ovarian
SF-268 CNS = test system: SF-268 CNS
HCT-116 colon = test system: HCT-116 colon
UACC-257 melanoma = test system: UACC-257 melanoma
M14 melanoma = test system: M14 melanoma
SK-MEL-2 melanoma = test system: SK-MEL-2 melanoma
UO-31 renal = test system: UO-31 renal
MDA-MB-435 = test system: MDA-MB-435
A549 NSCLC = test system: A549 NSCLC
MDA-N = test system: MDA-N
RPMI-8226 leukemia = test system: RPMI-8226 leukemia
BT-549 breast = test system: BT-549 breast
MALME-3M melanoma = test system: MALME-3M melanoma
NCI-H522 lung = test system: NCI-H522 lung
NCI/ADR-RES ovarian = test system: NCI/ADR-RES ovarian
SF-295 CNS = test system: SF-295 CNS
SK-MEL-28 melanoma = test system: SK-MEL-28 melanoma
CCRF-CEM leukemia = test system: CCRF-CEM leukemia
MOLT-4 leukemia = test system: MOLT-4 leukemia
HL-60(TB) leukemia = test system: HL-60(TB) leukemia

Measured: TGI

C#CC(O)Cc1ccc(OC)c2occc12 (centres undefined)
not listed: SK-MEL-28 melanoma | CCRF-CEM leukemia | MOLT-4 leukemia | HL-60(TB) leukemia
> 100 µM: all other assays above

O=C1/C(=C/c2ccc(Cl)cc2)Sc2scc(-c3cccc([N+](=O)[O-])c3)[n+]21
12.9 µM: SK-MEL-5 melanoma | NCI-H23 lung
10.2 µM: SK-MEL-28 melanoma
15.5 µM: UO-31 renal
> 69.7 µM: HOP-62 NSCLC
43.6 µM: HS 578T breast
2.42 µM: SR leukemia
4.48 µM: COLO 205 colon
> 45 µM: HT29 colon
13.1 µM: KM12 colon
5.49 µM: SNB-75 CNS
28.1 µM: OVCAR-4 ovarian
10.9 µM: UACC-257 melanoma
> 100 µM: T-47D breast | NCI-H226 lung
51.3 µM: OVCAR-5 ovarian
13.2 µM: MDA-MB-435
2.01 µM: NCI-H522 lung
3.99 µM: RPMI-8226 leukemia
6.49 µM: 786-0 renal
3.9 µM: MOLT-4 leukemia
8.11 µM: SF-539 CNS
23.6 µM: SK-OV-3 ovarian | U251 CNS
6.85 µM: CAKI-1 renal
7.97 µM: RXF 393 renal
14.6 µM: SF-268 CNS
38.9 µM: SNB-19 CNS
> 32.1 µM: MDA-MB-231 breast
17.9 µM: SF-295 CNS
11.9 µM: SN12C renal
1.18 µM: CCRF-CEM leukemia
7.48 µM: IGROV1 ovarian
> 35 µM: M14 melanoma
3.82 µM: SW-620 colon
4.66 µM: HCT-15 colon
29.1 µM: SK-MEL-2 melanoma
> 40.7 µM: MCF7 breast
20.6 µM: PC-3 prostate
6.27 µM: ACHN renal
13.5 µM: UACC-62 melanoma
> 68.5 µM: A549 NSCLC
5.07 µM: TK-10 renal
6.37 µM: BT-549 breast
2.24 µM: K-562 leukemia
5.39 µM: HOP-92 NSCLC
13.8 µM: MDA-N
> 33.3 µM: DU-145 prostate
13.9 µM: EKVX NSCLC
36 µM: OVCAR-3 ovarian
20.3 µM: NCI-H460 lung
10.5 µM: HCC-2998 colon

COC1C(O)C(C)OC(O[C@@H]2C[C@H]3CC[C@@H]4[C@H](CC[C@]5(C)[C@@H](C6=CC(=O)OC6)CC[C@]45O)[C@@]3(C)[C@H](O)C2)C1O (some centres undefined)
1.26 µM: SNB-19 CNS
1.07 µM: UACC-257 melanoma
0.0363 µM: RXF 393 renal
1.01 µM: SNB-75 CNS
0.122 µM: SK-MEL-5 melanoma
0.0725 µM: RPMI-8226 leukemia
0.0871 µM: A498 renal
0.647 µM: UACC-62 melanoma
12.5 µM: U251 CNS
0.168 µM: EKVX NSCLC
0.0812 µM: DU-145 prostate
0.132 µM: NCI-H522 lung
0.327 µM: HCT-15 colon
0.145 µM: HL-60(TB) leukemia
0.532 µM: NCI-H226 lung
1.8 µM: KM12 colon
0.896 µM: TK-10 renal
0.472 µM: HT29 colon
2.69 µM: HCC-2998 colon
0.817 µM: T-47D breast
1.7 µM: SK-MEL-2 melanoma
0.159 µM: BT-549 breast
0.0249 µM: SF-539 CNS
0.0591 µM: SN12C renal
0.0222 µM: NCI-H460 lung
0.0379 µM: OVCAR-4 ovarian
> 100 µM: HS 578T breast | HOP-92 NSCLC | MDA-MB-231 breast | CCRF-CEM leukemia | 786-0 renal
0.321 µM: SF-295 CNS
0.347 µM: SK-OV-3 ovarian
0.457 µM: K-562 leukemia
0.615 µM: ACHN renal
0.233 µM: LOX IMVI melanoma
0.119 µM: MALME-3M melanoma
< 0.0462 µM: A549 NSCLC
0.183 µM: NCI/ADR-RES ovarian
0.268 µM: OVCAR-8 ovarian
< 0.0273 µM: MOLT-4 leukemia
0.0231 µM: NCI-H23 lung
1.05 µM: COLO 205 colon
0.0215 µM: CAKI-1 renal
0.819 µM: SK-MEL-28 melanoma
0.365 µM: OVCAR-5 ovarian
0.252 µM: M14 melanoma
0.0994 µM: HCT-116 colon
0.0362 µM: HOP-62 NSCLC
0.171 µM: SF-268 CNS
0.379 µM: MDA-MB-435
0.0838 µM: OVCAR-3 ovarian | MDA-N

CCN1C(=O)CS/C1=N\NC(=O)CSc1nc2ccccc2c(=O)n1CC
not listed: HOP-92 NSCLC | HT29 colon
> 100 µM: all other assays above

O=C1c2c(ccc3c2CCCC3)CC1Cc1ccc2c(c1)CCCC2 (centres undefined)
9.84 µM: T-47D breast
67.6 µM: SR leukemia
46.9 µM: HL-60(TB) leukemia
83.6 µM: HOP-92 NSCLC
59.7 µM: CCRF-CEM leukemia
71 µM: UACC-257 melanoma
78.5 µM: RXF 393 renal
not listed: CAKI-1 renal | NCI-H522 lung | NCI/ADR-RES ovarian
> 100 µM: all other assays above

Cc1cc(C#N)c(Nc2ccccc2[N+](=O)[O-])s1
30.9 µM: MDA-N
97.2 µM: EKVX NSCLC
60.5 µM: BT-549 breast
62.9 µM: OVCAR-5 ovarian
47 µM: RXF 393 renal
47.5 µM: MDA-MB-435
57.6 µM: U251 CNS | NCI-H522 lung
53 µM: NCI/ADR-RES ovarian
92.4 µM: MDA-MB-231 breast
71.5 µM: OVCAR-3 ovarian
91.1 µM: HCC-2998 colon
67.7 µM: SN12C renal
73.9 µM: PC-3 prostate
78.8 µM: DU-145 prostate
90.9 µM: HOP-62 NSCLC
not listed: HS 578T breast | SK-MEL-5 melanoma | TK-10 renal | LOX IMVI melanoma | HT29 colon | SK-MEL-2 melanoma | MALME-3M melanoma | HL-60(TB) leukemia
> 100 µM: all other assays above

N#Cc1c(N2CCOCC2)ncn(-c2ccc(Cl)cc2)c1=O
not listed: HS 578T breast | MDA-MB-231 breast | TK-10 renal | RXF 393 renal | HT29 colon | OVCAR-4 ovarian | SF-268 CNS | MALME-3M melanoma | NCI-H522 lung
> 100 µM: all other assays above

— PubChem BioAssay (NCI)
